Source: patent publication US10123541B2, “Biocidal mixture, use of biocidal mixture and compositions comprising a biocidal mixture” (ISP Investments LLC, priority 2014, dated 2018)

What was measured:
Assay in all cases: Minimum Inhibitory Concentration (MIC) growth test
Type in all cases: cell-based
[1] = test system: Pseudomonas aeruginosa, ATCC 9027; design: key: − = no growth; + = low growth; ++ = moderate growth; +++ = high growth
Description: (§1) This example intends to analyze the microbial activity of the mixture of invention compared to the individual activity of the mixture components using the methodology that determines the minimal concentration of the substance or mixture that inhibits microorganism growth.
(§2) The tested micro-organisms were: • Staphylococcus aureus, ATCC 6538 • Escherichia coli, ATCC 8739 • Pseudomonas aeruginosa, ATCC 9027 • Burkholderia cepacia, ATCC 25416 • Candida albicans, ATCC 10231 • Aspergillus brasiliensis, ATCC 16404
(§3) The samples of the table above were initially prepared with an initial concentration of 3% based on their solubility in water, and then diluted to achieve the following concentrations: 1.5%; 0.75%; 0.375%; 0.1875%; 0.09375%.
(§4) The dilutions were obtained as follows: (a) to a first test tube containing 5 mL of tripticase soy broth (TSB), 5 mL of 3% concentration solution were added and the mixture was vortexed. 5 mL of the contents of this tube were removed and added to a second tube containing 5 mL of TSB and the mixture was vortexed. This procedure was repeated until obtaining the various concentrations.
(§5) The tested organisms were prepared as typical organism inoculants, under the form of a saline suspension. The concentration of bacterial inoculants was approximately 1×10^6 cfu/mL (“colony-forming unit per milliliter”). The concentration of fungal inoculants was approximately 1×10^5 spores/mL. In the sequence, each sample solution was inoculated with 0.1 mL of organism inoculum and vortexed. The tubes containing bacteria were incubated for 24 hours at 35° C. and the tubes containing fungi were incubated for 48 hours at 25° C.
(§6) An aliquot of 0.1 mL from these tubes was transferred to a tube having 9 mL of Letheen broth containing neutralizing agents. These Letheen tubes were again incubated for 48 hours with Letheen under incubation temperature for bacteria or fungi. Then, a swab previously wet with TSB was put in contact with sample solutions with concentrations 1.5%; 0.75%; 0.375%; 0.1875% and 0.09375%, and then they were swiped over the surface of culture plates (for bacteria: Letheen agar, AOAC—Association of Official Analytical Chemists; for fungi: Mycophil® agar of low pH with Tween® 20 polysorbate surfactant).

[2] = test system: Aspergillus brasiliensis, ATCC 16404; design: key: − = no growth; + = low growth; ++ = moderate growth; +++ = high growth
Description: as §1, §2, §3, §4, §5, §6

[3] = test system: Candida albicans, ATCC 10231; design: key: − = no growth; + = low growth; ++ = moderate growth; +++ = high growth
Description: as §1, §2, §3, §4, §5, §6

[4] = test system: Staphylococcus aureus, ATCC 6538; design: key to growth of organisms: − = no growth; + = low growth; ++ = moderate growth; +++ = high growth
Description: as §1, §2, §3, §4, §5, §6

[5] = test system: Escherichia coli, ATCC 8739; design: key to growth of organisms: − = no growth; + = low growth; ++ = moderate growth; +++ = high growth
Description: as §1, §2, §3, §4, §5, §6

[6] = test system: Burkholderia cepacia, ATCC 25416; design: key to growth of organisms: − = no growth; + = low growth; ++ = moderate growth; +++ = high growth
Description: as §1, §2, §3, §4, §5, §6

Question: How did the growth of organisms ([1]; sample concentration 0.09375%) turn out when `OCCCc1ccccc1` [Sample 1, Phenylpropanol] was run?
Answer: Its growth of organisms is “+”.

Question: And the growth of organisms ([1]; sample concentration 0.1875%)?
Answer: Its growth of organisms is “+”.

Question: And the growth of organisms ([1]; sample concentration 0.375%)?
Answer: Its growth of organisms is “+”.

Question: And the growth of organisms ([1]; sample concentration 0.75%)?
Answer: Its growth of organisms is “+”.

Question: What about the growth of organisms ([1]; sample concentration 1.5%) of the same compound?
Answer: Its growth of organisms is “−”.

Question: And the growth of organisms ([2]; sample concentration 0.09375%)?
Answer: The growth of organisms was “+”.

Question: And the growth of organisms ([2]; sample concentration 0.1875%)?
Answer: The growth of organisms was “+”.

Question: What about the growth of organisms ([2]; sample concentration 0.375%) of the same compound?
Answer: The growth of organisms was “+”.

Question: What about the growth of organisms ([2]; sample concentration 0.75%) of the same compound?
Answer: Its growth of organisms is “−”.

Question: What about the growth of organisms ([2]; sample concentration 1.5%) of the same compound?
Answer: Its growth of organisms is “−”.

Question: What about the growth of organisms ([3]; sample concentration 0.09375%) of the same compound?
Answer: The growth of organisms was “+”.

Question: And the growth of organisms ([3]; sample concentration 0.1875%)?
Answer: Its growth of organisms is “+”.

Question: And the growth of organisms ([3]; sample concentration 0.375%)?
Answer: The growth of organisms was “+”.

Question: And the growth of organisms ([3]; sample concentration 0.75%)?
Answer: The growth of organisms was “−”.

Question: And the growth of organisms ([3]; sample concentration 1.5%)?
Answer: The growth of organisms was “−”.

Question: And the “inhibition of growth (in words)” value ([4]; concentration of 1.5%)?
Answer: The value was “not able to inhibit the growth”.

Question: And the growth of organisms ([4]; sample concentration 0.09375%)?
Answer: The growth of organisms was “+”.

Question: And the growth of organisms ([4]; sample concentration 0.1875%)?
Answer: Its growth of organisms is “+”.

Question: What about the growth of organisms ([4]; sample concentration 0.375%) of the same compound?
Answer: The growth of organisms was “+”.

Question: What about the growth of organisms ([4]; sample concentration 0.75%) of the same compound?
Answer: The growth of organisms was “+”.

Question: And the growth of organisms ([4]; sample concentration 1.5%)?
Answer: Its growth of organisms is “+”.

Question: And the “inhibition of growth (in words)” value ([5]; concentration of 1.5%)?
Answer: Its value is “not able to inhibit the growth”.

Question: And the growth of organisms ([5]; sample concentration 0.09375%)?
Answer: Its growth of organisms is “+”.

Question: What about the growth of organisms ([5]; sample concentration 0.1875%) of the same compound?
Answer: Its growth of organisms is “+”.

Question: What about the growth of organisms ([5]; sample concentration 0.375%) of the same compound?
Answer: Its growth of organisms is “+”.

Question: What about the growth of organisms ([5]; sample concentration 0.75%) of the same compound?
Answer: The growth of organisms was “+”.

Question: And the growth of organisms ([5]; sample concentration 1.5%)?
Answer: The growth of organisms was “+”.

Question: And the “inhibition of growth (in words)” value ([6]; concentration of 1.5%)?
Answer: Its value is “not able to inhibit the growth”.

Question: What about the growth of organisms ([6]; sample concentration 0.09375%) of the same compound?
Answer: The growth of organisms was “+”.

Question: And the growth of organisms ([6]; sample concentration 0.1875%)?
Answer: The growth of organisms was “+”.

Question: What about the growth of organisms ([6]; sample concentration 0.375%) of the same compound?
Answer: The growth of organisms was “+”.

Question: And the growth of organisms ([6]; sample concentration 0.75%)?
Answer: Its growth of organisms is “+”.

Question: What about the growth of organisms ([6]; sample concentration 1.5%) of the same compound?
Answer: Its growth of organisms is “+”.
